Data as given in patent US9421204B2, “Oligomer modified diaromatic substituted compounds” (priority 2010, dated 2016).
pIC50: −log10 of the molar value. Like-named read-outs stand apart in the source and are kept apart here.

Legend:
[1] = Log P determination (Sirius GLpKa); format: physicochemical; details: Partition Log P, 25° C.; for logP: read-out: Log P
Description: The Sirius GLpKa instrument is used to determine the pKa and Log P. A blank standardization has to be completed first and passed in order to conduct the compound experiments. The solutions used by the instrument for the blank titration include water, a pH solution, and a surfactant (TRITON X-100). The TRITON X-100 was purchased commercially from Sirus. The 0.5% solution of TRITON X-100 was used in the experiment. In a 1 L volumetric flask 5 mls of TRITON X-100 is added and MILLI Q water to volume. The vessels used by the instrument were filled to ⅓ of their volume with each solution. Therefore the assay tray contains one vessel for water, pH solution, and surfactant for the blank run. The temperature of the water bath for the instrument is 25° C. The blank is calculated as an average of three “good” experiments. The “good” was denoted by a green check mark next to the assay number in the computer software. Once the blank was run successfully the instrument was ready to conduct the experiments. An additional method has to be set up for the Log P determinations for each compound. The conjugates are weighed into vessels in the same manner as for the previous experiment, i.e., 10% of the molecular weight. The vessels are placed in the assay tray of the instrument. The experimental parameters are entered into the computer. These included sample weight, molecular weight, assay type (Partition Log P), number of assays (three), and pKa value of the parent drug from the previous experiment. The run was started. There are three measurements for each run that are averaged to obtain the final results from the data points collected in the calculation software. All runs were denoted as “good” by the green check mark next to the assay number.

Wild Type RT = Wild Type RT (Human immunodeficiency virus type 1 group M subtype B, UniProt P04585); assay: HIV-1 Reverse Transcriptase Inhibition Assay; format: biochemical
Description: The following materials were removed from the freezer and were stored on wet ice (dGTP, ^32P, purified enzyme extract, rCdG, dGTP, DNA). Test compounds were evaluated at a high test of 100 μM diluted in dH2O and if the stock solution was turbid, 1:1000 Triton-X was added to the stock solution. Thirty microliters (30 μL) of each dilution was then transferred in duplicate to the appropriate well of a 96-well plate. The positive and negative control wells each received 30 μL of dH2O instead of the compound. A 2× buffer was prepared in the following manner: 125 μL 2M Tris pH 8.0, 250 μL 3M KCl, 80 μL 1 M MgC12, 10 μL 2 M DTT, 40 μL 25 U/mL rCdG, 100 μL 1 mM dGTP, 10 μL 800 Ci/mMol alpha ^32P:dG TP, and 4.4 mL dH2O. Fifty microliters (50 μL) of 2× buffer was added to every well of the plate. BSA was diluted 1:100 and Triton-X 1:1000 in dH2O and the enzyme was added to the mixture at a 1:400 dilution. Twenty microliters (20 μL) of the enzyme solution was added to all of the wells of the plate except the negative control wells. Distilled water was used instead of enzyme in these wells. The plate was incubated at 37° C. for 30 minutes. Following incubation, 10 μL of 10 mg/mL DNA (MB-grade fish sperm) was added to each well, followed by 150 μL of cold 10% TCA in each well. The plate was incubated at room temperature for approximately 15 minutes in order to allow for precipitation of the samples. Following the incubation the contents were transferred to the appropriate filter plate. The plate was placed on the vacuum manifold and pushed firmly to induce suction. Wells were rinsed with 200 μL of cold TCA. Again, the plate was pushed down firmly and vacuum suction was applied. Once all of the liquid was aspirated from the filter plate, it was removed from the manifold and residual liquid was blotted from the bottom of the plastic base. The filtered wells were separated from the plastic base and the wells were blotted on clean, absorbent paper. The filtered wells were pushed into the cassette and a sheet of Millipore multiscreen tape was placed on the bottom of a Wallace Microbeta cassette covering all of the holes. Twenty microliters (20 μL) of Wallace Supermix Scintillant was added to each well and the top of the wells were covered with a sheet of the multiscreen tape. The plate was read on the Wallace MicroBeta counter to measure incorporated ^32P.

in vitro = in vitro ADME; details: human; for Papp A→B at 2 hours, 10 μM / Papp B→A at 2 hours, 10 μM: pH 7.4; for Papp A→B at 2 hours, 10 μM: read-out: Average Papp, A→B; for Papp B→A at 2 hours, 10 μM: read-out: Average Papp, B→A; for efflux ratio at 2 hours, 10 μM: read-out: Efflux Ratio (B→A/A→B)
Description: Each determination was performed in duplicate.
Vr is the volume of the receiver compartment in cm^3.
Vd is the volume of the donor compartment in cm^3.
A is the area of the cell monolayer (1.13 cm^2 for 12-well Transwell®).
CN is the nominal dosing concentration of the dosing solution in μM.
CA is the average of the nominal dosing concentration and the measured 120 minute donor concentration in μM.
Cr^final is the receiver concentration in μM at the end of the incubation period.
Cd^final is the concentration of the donor in μM at the end of the incubation period.

[2] = Caco-2, pH 7.4, Test 2, 10 μM, read-out: Recovery (%) A→B
[3] = Caco-2, pH 7.4, Test 2, 10 μM, read-out: Recovery (%) B→A
[4] = Caco-2, pH 7.4, Test 1, 10 μM, read-out: Recovery (%) A→B
[5] = Caco-2, pH 7.4, Test 1, 10 μM, read-out: Recovery (%) B→A

Compound	Log P [1]	pIC50 (Wild Type RT; read-out: Wild Type RT IC50)	pIC50 (Wild Type RT; Wild Type RT IC50)	Papp A→B at 2 hours, 10 μM (in vitro; Caco-2, pH 7.4, Test 2, 10 μM)	Papp B→A at 2 hours, 10 μM (in vitro; Caco-2, pH 7.4, Test 2, 10 μM)	recovery at 2 h, 10 μM (in vitro; [2])	recovery at 2 h, 10 μM (in vitro; [3])	efflux ratio at 2 hours, 10 μM (in vitro; Caco-2, pH 7.4, Test 2)	logP [1]	Papp A→B at 2 hours, 10 μM (in vitro; Caco-2, pH 7.4, Test 1, 10 μM)	Papp B→A at 2 hours, 10 μM (in vitro; Caco-2, pH 7.4, Test 1, 10 μM)	recovery at 2 h, 10 μM (in vitro; [4])	recovery at 2 h, 10 μM (in vitro; [5])	efflux ratio at 2 hours, 10 μM (in vitro; Caco-2, pH 7.4, Test 1)
5-O-mPEG9-Delavirdine [mPEG9-O-Delavirdine]	2.328	6.25	–	–	–	–	–	–	–	–	–	–	–	–
COCCNc1ccc2[nH]c(C(=O)N3CCN(c4ncccc4NC(C)C)CC3)cc2c1 [5-mPEG1-NH-Delavirdine, 5-mPEG-NH-Delavirdine]	–	–	6.60	50.2 ×10⁻⁶ cm/s	39.4 ×10⁻⁶ cm/s	91%	92%	0.8	–	–	–	–	–	–
COCCOCCNc1ccc2[nH]c(C(=O)N3CCN(c4ncccc4NC(C)C)CC3)cc2c1 [5-mPEG2-NH-Delavirdine]	–	–	6.24	46.2 ×10⁻⁶ cm/s	41.1 ×10⁻⁶ cm/s	88%	88%	0.9	–	–	–	–	–	–
COCCOCCOCCOc1ccc2[nH]c(C(=O)N3CCN(c4ncccc4NC(C)C)CC3)cc2c1 [mPEG3-O-Delavirdine, 5-O-mPEG3-Delavirdine]	–	–	7.30	41.4 ×10⁻⁶ cm/s	29.1 ×10⁻⁶ cm/s	95%	101%	0.7	1.98	38.4 ×10⁻⁶ cm/s	33.9 ×10⁻⁶ cm/s	66%	61%	0.9
COCCOCCOCCOCCOc1ccc2[nH]c(C(=O)N3CCN(c4ncccc4NC(C)C)CC3)cc2c1 [mPEG4-O-Delavirdine, 5-O-mPEG4-Delavirdine]	–	–	6.55	–	–	–	–	–	2.22	39.3 ×10⁻⁶ cm/s	34.8 ×10⁻⁶ cm/s	74%	65%	0.9
COCCOCCOCCOCCOCCOc1ccc2[nH]c(C(=O)N3CCN(c4ncccc4NC(C)C)CC3)cc2c1 [mPEG5-O-Delavirdine, 5-O-mPEG5-Delavirdine]	–	–	6.89	33.3 ×10⁻⁶ cm/s	38.9 ×10⁻⁶ cm/s	97%	95%	1.2	–	29.9 ×10⁻⁶ cm/s	39.1 ×10⁻⁶ cm/s	71%	65%	1.3
COCCOCCOCCOCCOCCOCCOc1ccc2[nH]c(C(=O)N3CCN(c4ncccc4NC(C)C)CC3)cc2c1 [mPEG6-O-Delavirdine, 5-O-mPEG6-Delavirdine]	–	–	6.54	–	–	–	–	–	2.65	16.1 ×10⁻⁶ cm/s	34.1 ×10⁻⁶ cm/s	67%	72%	2.1
COCCOCCOCCOCCOCCOCCOCCOc1ccc2[nH]c(C(=O)N3CCN(c4ncccc4NC(C)C)CC3)cc2c1 [mPEG7-O-Delavirdine, 5-O-mPEG7-Delavirdine]	–	–	6.15	23.1 ×10⁻⁶ cm/s	39.3 ×10⁻⁶ cm/s	94%	95%	1.7	2.73	14.2 ×10⁻⁶ cm/s	36.6 ×10⁻⁶ cm/s	74%	69%	2.6
COCCOCCOCCOCCOCCOCCOCCOCCOc1ccc2[nH]c(C(=O)N3CCN(c4ncccc4NC(C)C)CC3)cc2c1 [mPEG8-O-Delavirdine, 5-O-mPEG8-Delavirdine]	–	–	6.31	–	–	–	–	–	2.58	4.98 ×10⁻⁶ cm/s	43.6 ×10⁻⁶ cm/s	80%	82%	8.8
